Test results as given in ChEMBL document CHEMBL2440076, “New triarylpyrazoles as broad-spectrum anticancer agents: design, synthesis, and biological evaluation” (Eur J Med Chem, 2013).

Assays:
Format in all cases: functional
[1] = Growth inhibition of human HCC2998 cells assessed as cell growth at 5X10'-8 M after 48 hrs by sulforhodamine B assay; settings: HCC 2998, 48 h, read-out: Activity
OVCAR-5 = assay: Growth inhibition of human OVCAR5 cells assessed as cell growth at 5X10'-5 M after 48 hrs by sulforhodamine B assay; settings: OVCAR-5, 48 h, read-out: Activity
CAKI-1 = assay: Growth inhibition of human CAKI-1 cells assessed as cell growth at 5X10'-8 M after 48 hrs by sulforhodamine B assay; settings: CAKI-1, 48 h, read-out: Activity
[2] = Growth inhibition of human HCC2998 cells assessed as cell growth at 5X10'-9 M after 48 hrs by sulforhodamine B assay; settings: HCC 2998, 48 h, read-out: Activity
UACC-257 = assay: Growth inhibition of human UACC257 cells assessed as cell growth at 5X10'-5 M after 48 hrs by sulforhodamine B assay; settings: UACC-257, 48 h, read-out: Activity
SK-MEL-5 [3] = assay: Growth inhibition of human SK-MEL-5 cells assessed as cell growth at 5X10'-8 M after 48 hrs by sulforhodamine B assay; settings: SK-MEL-5, 48 h, read-out: Activity
SNB-75 [4] = assay: Growth inhibition of human SNB75 cells assessed as cell growth at 5X10'-8 M after 48 hrs by sulforhodamine B assay; settings: SNB-75, 48 h, read-out: Activity
SNB-75 [5] = assay: Growth inhibition of human SNB75 cells assessed as cell growth at 5X10'-9 M after 48 hrs by sulforhodamine B assay; settings: SNB-75, 48 h, read-out: Activity
786-0 [6] = assay: Growth inhibition of human 786-0 cells assessed as cell growth at 5X10'-9 M after 48 hrs by sulforhodamine B assay; settings: 786-0, 48 h, read-out: Activity
HOP-62 = assay: Growth inhibition of human HOP62 cells assessed as cell growth at 5X10'-9 M after 48 hrs by sulforhodamine B assay; settings: HOP-62, 48 h, read-out: Activity
A549 = assay: Growth inhibition of human A549/ATCC cells assessed as cell growth at 5X10'-8 M after 48 hrs by sulforhodamine B assay; settings: A549, 48 h, read-out: Activity
UO-31 [7] = assay: Growth inhibition of human UO31 cells assessed as cell growth at 5X10'-5 M after 48 hrs by sulforhodamine B assay; settings: UO-31, 48 h, read-out: Activity
SK-OV-3 [8] = assay: Growth inhibition of human SKOV3 cells assessed as cell growth at 5X10'-7 M after 48 hrs by sulforhodamine B assay; settings: SK-OV-3, 48 h, read-out: Activity
[9] = Growth inhibition of human HCC2998 cells assessed as cell growth at 5X10'-7 M after 48 hrs by sulforhodamine B assay; settings: HCC 2998, 48 h, read-out: Activity
SK-OV-3 [10] = assay: Growth inhibition of human SKOV3 cells assessed as cell growth at 5X10'-8 M after 48 hrs by sulforhodamine B assay; settings: SK-OV-3, 48 h, read-out: Activity
HOP-92 = assay: Growth inhibition of human HOP92 cells assessed as cell growth at 5X10'-7 M after 48 hrs by sulforhodamine B assay; settings: HOP-92, 48 h, read-out: Activity
SR = assay: Growth inhibition of human SR cells assessed as cell growth at 5X10'-6 M after 48 hrs by sulforhodamine B assay; settings: read-out: Activity
SK-MEL-28 = assay: Growth inhibition of human SK-MEL-28 cells assessed as cell growth at 5X10'-5 M after 48 hrs by sulforhodamine B assay; settings: SK-MEL-28, 48 h, read-out: Activity
RXF 393 = assay: Growth inhibition of human RXF393 cells assessed as cell growth at 5X10'-6 M after 48 hrs by sulforhodamine B assay; settings: RXF 393, 48 h, read-out: Activity
COLO 205 = assay: Growth inhibition of human COLO205 cells assessed as cell growth at 5X10'-7 M after 48 hrs by sulforhodamine B assay; settings: COLO 205, 48 h, read-out: Activity
SF-268 [11] = assay: Growth inhibition of human SF268 cells assessed as cell growth at 5X10'-8 M after 48 hrs by sulforhodamine B assay; settings: SF-268, 48 h, read-out: Activity
KM12 = assay: Growth inhibition of human KM12 cells assessed as cell growth at 5X10'-9 M after 48 hrs by sulforhodamine B assay; settings: KM12, 48 h, read-out: Activity
NCI-H460 = assay: Growth inhibition of human NCI-H460 cells assessed as cell growth at 5X10'-5 M after 48 hrs by sulforhodamine B assay; settings: NCI-H460, 48 h, read-out: Activity
DU-145 = assay: Growth inhibition of human DU145 cells assessed as cell growth at 5X10'-9 M after 48 hrs by sulforhodamine B assay; settings: DU-145, 48 h, read-out: Activity
SK-MEL-5 [12] = assay: Growth inhibition of human SK-MEL-5 cells assessed as cell growth at 5X10'-5 M after 48 hrs by sulforhodamine B assay; settings: SK-MEL-5, 48 h, read-out: Activity
RPMI-8226 = assay: Growth inhibition of human RPMI8226 cells assessed as cell growth at 5X10'-8 M after 48 hrs by sulforhodamine B assay; settings: RPMI-8226, 48 h, read-out: Activity
SN12C = assay: Growth inhibition of human SN12C cells assessed as cell growth at 5X10'-6 M after 48 hrs by sulforhodamine B assay; settings: read-out: Activity
MDA-MB-468 = assay: Growth inhibition of human MDA-MB-468 cells assessed as cell growth at 5X10'-7 M after 48 hrs by sulforhodamine B assay; settings: MDA-MB-468, 48 h, read-out: Activity
UO-31 [13] = assay: Growth inhibition of human UO31 cells assessed as cell growth at 5X10'-8 M after 48 hrs by sulforhodamine B assay; settings: UO-31, 48 h, read-out: Activity
NCI-H322M = assay: Growth inhibition of human NCI-H322M cells assessed as cell growth at 5X10'-7 M after 48 hrs by sulforhodamine B assay; settings: read-out: Activity
SNB-19 [14] = assay: Growth inhibition of human SNB19 cells assessed as cell growth at 5X10'-7 M after 48 hrs by sulforhodamine B assay; settings: SNB-19, 48 h, read-out: Activity
SF-268 [15] = assay: Growth inhibition of human SF268 cells assessed as cell growth at 5X10'-9 M after 48 hrs by sulforhodamine B assay; settings: SF-268, 48 h, read-out: Activity
[16] = Growth inhibition of human Hs 578T cells assessed as cell growth at 5X10'-8 M after 48 hrs by sulforhodamine B assay; settings: read-out: Activity
BT-549 = assay: Growth inhibition of human BT549 cells assessed as cell growth at 5X10'-6 M after 48 hrs by sulforhodamine B assay; settings: BT-549, 48 h, read-out: Activity
T47D = assay: Growth inhibition of human T47D cells assessed as cell growth at 5X10'-7 M after 48 hrs by sulforhodamine B assay; settings: read-out: Activity
SNB-19 [17] = assay: Growth inhibition of human SNB19 cells assessed as cell growth at 5X10'-8 M after 48 hrs by sulforhodamine B assay; settings: SNB-19, 48 h, read-out: Activity
786-0 [18] = assay: Growth inhibition of human 786-0 cells assessed as cell growth at 5X10'-6 M after 48 hrs by sulforhodamine B assay; settings: 786-0, 48 h, read-out: Activity

Row | SMILES | growth at 0.05 µM [1] | growth at 50 µM (OVCAR-5) | growth at 0.05 µM (CAKI-1) | growth at 0.005 µM [2] | growth at 50 µM (UACC-257) | growth at 0.05 µM (SK-MEL-5 [3]) | growth at 0.05 µM (SNB-75 [4]) | growth at 0.005 µM (SNB-75 [5]) | growth at 0.005 µM (786-0 [6]) | growth at 0.005 µM (HOP-62) | growth at 0.05 µM (A549) | growth at 50 µM (UO-31 [7]) | growth at 0.5 µM (SK-OV-3 [8]) | growth at 0.5 µM [9] | growth at 0.05 µM (SK-OV-3 [10]) | growth at 0.5 µM (HOP-92) | growth at 5 µM (SR) | growth at 50 µM (SK-MEL-28) | growth at 5 µM (RXF 393) | growth at 0.5 µM (COLO 205) | further results
1 | COc1cc(-c2nn(-c3cccc(NC(=O)Nc4cc(C(F)(F)F)cc(C(F)(F)F)c4)c3)cc2-c2ccncc2)ccc1Cl | 105% | -72% | 95% | 102% | -54% | 95% | 90% | 94% | 100% | 100% | 95% | -93% | 95% | 95% | 103% | 30% | -9% | -87% | -51% | 93% | growth at 0.05 µM (SF-268 [11]): 105%; growth at 0.005 µM (KM12): 103%; growth at 50 µM (NCI-H460): -59%; growth at 0.005 µM (DU-145): 106%; growth at 50 µM (SK-MEL-5 [12]): -93%; growth at 0.05 µM (RPMI-8226): 95%; growth at 5 µM (SN12C): -16%; growth at 0.5 µM (MDA-MB-468): 41%; growth at 0.05 µM (UO-31 [13]): 94%; growth at 0.5 µM (NCI-H322M): 83%; growth at 0.5 µM (SNB-19 [14]): 61%; growth at 0.005 µM (SF-268 [15]): 100%; growth at 0.05 µM [16]: 93%; growth at 5 µM (BT-549): -27%; growth at 0.5 µM (T47D): 89%; growth at 0.05 µM (SNB-19 [17]): 91%; growth at 5 µM (786-0 [18]): -60%
2 | O=C(Nc1cccc(-n2cc(-c3ccncc3)c(-c3ccc(Cl)c(O)c3)n2)c1)c1ccc(N2CCOCC2)c(C(F)(F)F)c1 | 99% | 71% | 99% | 95% | -9% | 93% | 88% | 94% | 94% | 91% | 101% | -5% | 106% | 108% | 98% | 53% | 18% | -54% | -18% | 111% | growth at 0.05 µM (SF-268 [11]): 93%; growth at 0.005 µM (KM12): 94%; growth at 50 µM (NCI-H460): -10%; growth at 0.005 µM (DU-145): 98%; growth at 50 µM (SK-MEL-5 [12]): -70%; growth at 0.05 µM (RPMI-8226): 99%; growth at 5 µM (SN12C): 70%; growth at 0.5 µM (MDA-MB-468): 92%; growth at 0.05 µM (UO-31 [13]): 88%; growth at 0.5 µM (NCI-H322M): 114%; growth at 0.5 µM (SNB-19 [14]): 105%; growth at 0.005 µM (SF-268 [15]): 90%; growth at 0.05 µM [16]: 87%; growth at 5 µM (BT-549): 70%; growth at 0.5 µM (T47D): 105%; growth at 0.05 µM (SNB-19 [17]): 104%; growth at 5 µM (786-0 [18]): 35%
3 | COc1cc(-c2nn(-c3cccc(NC(=O)Nc4cccc(C(F)(F)F)c4)c3)cc2-c2ccncc2)ccc1Cl | 98% | -43% | 98% | 100% | -87% | 95% | 95% | 92% | 95% | 93% | 97% | -35% | 102% | 94% | 99% | 55% | -24% | -69% | -52% | 93% | growth at 0.05 µM (SF-268 [11]): 93%; growth at 0.005 µM (KM12): 104%; growth at 50 µM (NCI-H460): -35%; growth at 0.005 µM (DU-145): 105%; growth at 50 µM (SK-MEL-5 [12]): -97%; growth at 0.05 µM (RPMI-8226): 97%; growth at 5 µM (SN12C): 12%; growth at 0.5 µM (MDA-MB-468): 57%; growth at 0.05 µM (UO-31 [13]): 79%; growth at 0.5 µM (NCI-H322M): 82%; growth at 0.5 µM (SNB-19 [14]): 74%; growth at 0.005 µM (SF-268 [15]): 97%; growth at 0.05 µM [16]: 96%; growth at 5 µM (BT-549): -12%; growth at 0.5 µM (T47D): 85%; growth at 0.05 µM (SNB-19 [17]): 97%; growth at 5 µM (786-0 [18]): -9%
